Molecular target: T1, Tlp1 (Cj1506c), Tlp1-LBD (Campylobacter jejuni, UniProt Q0P8B2)
T1 construct: Tlp1-LBD (residues 31 to 326), dCache domain
Assay: ITC with purified Tlp1-LBD, pH […]°C
Type: binding

T1 sequence (Q0P8B2 entry or part of it): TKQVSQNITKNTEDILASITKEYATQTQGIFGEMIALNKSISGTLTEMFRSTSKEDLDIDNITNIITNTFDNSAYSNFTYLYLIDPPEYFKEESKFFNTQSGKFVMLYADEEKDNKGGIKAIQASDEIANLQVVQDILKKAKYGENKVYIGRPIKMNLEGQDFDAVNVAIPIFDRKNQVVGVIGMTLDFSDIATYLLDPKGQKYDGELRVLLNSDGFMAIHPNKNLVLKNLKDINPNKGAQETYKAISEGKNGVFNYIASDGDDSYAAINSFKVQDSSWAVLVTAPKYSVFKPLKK

## O=CO [formate]
  Kd: 245 ± 74 µM
